In patent US5696151A, “Compounds useful for the inhibition of the replication of HIV-1 and HIV-1 mutants” (priority 1995, dated 1997):
≈ marks a conversion by molar mass, not a printed value.

How the values were obtained:
Assay type in all cases: cell-based
HIV-1/106-Ala = assay: Inhibition of HIV-1 induced syncytium formation in CEM cells, RT mutant 106-Ala; conditions: Human immunodeficiency virus 1, CCRF-CEM, 96 h, Table 2B, day 4, averages of 2 to 3 independent experiments, read-out: Antiviral Activity of Comparative Compounds EC50, 106-Ala
Summary of the method: (§1)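 Mutant strains were selected in culture for resistance to NNRTIs such as TSAO-m^3T, pyridinone L-697,661 or HEPT. Antiviral effect is inhibition of syncytium formation in infected CEM cells (~100 CCID50), assessed microscopically at day 4.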

HIV-1/103-Asn = assay: Inhibition of HIV-1 induced syncytium formation in CEM cells, RT mutant 103-Asn; conditions: Human immunodeficiency virus 1, CCRF-CEM, 96 h, Table 2B, day 4, averages of 2 to 3 independent experiments, read-out: Antiviral Activity of Comparative Compounds EC50, 103-Asn
Excerpt: (§2) CEM cells were obtained from the American Tissue Cell Culture Collection (Rockville, Md.). HIV-1(IIIB) was originally obtained from the culture supernatant of persistently HIV-1-infected H9 cells and was provided by R. C. Gallo and M. Popovic (National Cancer Institute, National Institutes of Health, Bethesda, Md.). […] 67: 5353-5359 (1993); HIV-1/Lys-138 ("Lys-138") was selected for resistance against TSAO-m^3T as described in Balzarini et al, Virology 192: 246-253 (1993) and Balzarini et al, Proc. Nat. Acad. Sci. USA 90: 6952-6956 (1993); HIV-1/181-Cys ("181-Cys") was selected for resistance against pyridinone L-697,661 as described in Balzarini et al, Virology 192: 246-253 (1993); and HIV-1/188-His ("188-His") was selected for resistance against HEPT as described in Balzarini et al, Mol. Pharmocol. 44: 694-701 (1993). 188-His was then further converted to HIV-1/188-Leu "188-Leu") upon further passage in cell culture in the absence of the HEPT.
(§3) CEM cells were suspended at ≈300,000 cells per ml of culture medium and infected with approximately 100 CCID50 (CCID50 being the 50% cell culture infective dose) of HIV-1(IIIB) or one of the HIV-1 RT mutant strains described above. Then 100 μl of the infected cell suspensions was added to 200 μl microtiter plate wells containing 100 μl of appropriate serial (5-fold) dilutions of the test compounds. The inhibitory effect of the test compounds on HIV-1 induced syncytium formation in CEM cells was examined microscopically on day 4 post infection.

HIV-1/100-Ile = assay: Inhibition of HIV-1 induced syncytium formation in CEM cells, RT mutant 100-Ile; conditions: Human immunodeficiency virus 1, CCRF-CEM, 96 h, Table 2B, day 4, averages of 2 to 3 independent experiments, read-out: Antiviral Activity of Comparative Compounds EC50, 100-Ile
Summary of the method: as §1

HIV-1/Lys-138 = assay: Inhibition of HIV-1 induced syncytium formation in CEM cells, RT mutant 138-Lys; conditions: Human immunodeficiency virus 1, CCRF-CEM, 96 h, Table 2B, day 4, averages of 2 to 3 independent experiments, read-out: Antiviral Activity of Comparative Compounds EC50, 138-Lys
Summary of the method: as §1

in vitro = conditions: human, cem cells, CC50 (50% cytostatic concentration), Table 2B; CEM cell proliferation; averages of 2 to 3 independent experiments
Summary of the method: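 Value is the 50% cytostatic concentration, the compound concentration that inhibits CEM cell proliferation by 50%. HIV-1(IIIB) and NNRTI-resistant variants selected in culture (Lys-138, 181-Cys, 188-His, 188-Leu) were used alongside.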

HIV-1(IIIB) = assay: Inhibition of HIV-1 induced syncytium formation in CEM cells, wild type; conditions: Human immunodeficiency virus 1, IIIB, CCRF-CEM, 96 h, Table 2B, WT = HIV-1(IIIB), day 4, averages of 2 to 3 independent experiments, read-out: Antiviral Activity of Comparative Compounds EC50, WT
Summary of the method: as §1

HIV-1/188-Leu = assay: Inhibition of HIV-1 induced syncytium formation in CEM cells, RT mutant 188-Leu; conditions: Human immunodeficiency virus 1, CCRF-CEM, 96 h, Table 2B, day 4, averages of 2 to 3 independent experiments, read-out: Antiviral Activity of Comparative Compounds EC50, 188-Leu
Excerpt: as §2, §3

HIV-1/181-Cys = assay: Inhibition of HIV-1 induced syncytium formation in CEM cells, RT mutant 181-Cys; conditions: Human immunodeficiency virus 1, CCRF-CEM, 96 h, Table 2B, day 4, averages of 2 to 3 independent experiments, read-out: Antiviral Activity of Comparative Compounds EC50, 181-Cys
Summary of the method: as §1

Row | Structure (SMILES) | EC50 (HIV-1/106-Ala) [µg/mL] | EC50 (HIV-1/103-Asn) [µg/mL] | EC50 (HIV-1/100-Ile) [µg/mL] | EC50 (HIV-1/Lys-138) [µg/mL] | CC50 (in vitro) [µg/mL] | EC50 (HIV-1(IIIB)) [µg/mL] | EC50 (HIV-1/188-Leu) [µg/mL] | EC50 (HIV-1/181-Cys) [µg/mL]
1 | Cc1occc1C(=S)Nc1ccc(Cl)c(OCCC(C)C)c1 [Compound 44] | 0.06 (≈ 0.178 µM) | 0.08 (≈ 0.237 µM) | 0.035 (≈ 0.104 µM) | 0.03 (≈ 0.0888 µM) | > 100 | 0.0073 (≈ 0.0216 µM) | > 10 | 0.08 (≈ 0.237 µM)
2 | CC=CCOc1cc(NC(=S)c2ccn(C)c2C)ccc1Cl [Compound 19] | 0.4 (≈ 1.19 µM) | ≥ 2 | 0.85 (≈ 2.54 µM) | 0.6 (≈ 1.79 µM) | 5.2 (≈ 15.5 µM) | 0.17 (≈ 0.508 µM) | > 2 | 0.13 (≈ 0.388 µM)
3 | Cc1occc1C(=S)Nc1ccc(Cl)c(OC2CCCCC2)c1 [Compound 26] | 0.09 (≈ 0.257 µM) | 0.33 (≈ 0.943 µM) | 0.33 (≈ 0.943 µM) | 0.5 (≈ 1.43 µM) | 5.3 (≈ 15.1 µM) | 0.033 (≈ 0.0943 µM) | > 2 | ≥ 2
4 | CC1=C(C(=O)Nc2ccc(Cl)c(OCCC(C)C)c2)SCCO1 [Compound 41] | ≥ 2 | ≥ 2 | ≥ 2 | ≥ 2 | > 100 | 0.28 (≈ 0.787 µM) | > 2 | ≥ 2
5 | Cc1sccc1C(=S)Nc1ccc(Cl)c(C(=O)OC(C)C)c1 [Compound 16] | 0.077 (≈ 0.218 µM) | 0.33 (≈ 0.932 µM) | 0.15 (≈ 0.424 µM) | 0.03 (≈ 0.0848 µM) | 5.9 (≈ 16.7 µM) | 0.0041 (≈ 0.0116 µM) | > 2 | 0.1 (≈ 0.283 µM)
6 | CC(C)=CCOc1cc(NC(=O)c2ccoc2C)ccc1Cl [Compound 30] | 0.34 (≈ 1.06 µM) | 1.67 (≈ 5.22 µM) | 1.27 (≈ 3.97 µM) | 0.23 (≈ 0.719 µM) | > 100 | 0.015 (≈ 0.0469 µM) | > 2 | 0.65 (≈ 2.03 µM)
7 | CC=CCSc1cc(NC(=S)c2ccoc2C)ccc1Cl [Compound 6] | 0.018 (≈ 0.0533 µM) | 0.03 (≈ 0.0888 µM) | 0.037 (≈ 0.11 µM) | 0.03 (≈ 0.0888 µM) | 4.7 (≈ 13.9 µM) | 0.0041 (≈ 0.0121 µM) | 1 (≈ 2.96 µM) | 0.045 (≈ 0.133 µM)
8 | CC1=C(C(=O)Nc2ccc(Cl)c(C=NOC(C)(C)C)c2)CCCO1 [Compound 24] | 0.5 (≈ 1.43 µM) | 0.6 (≈ 1.71 µM) | 0.48 (≈ 1.37 µM) | 0.5 (≈ 1.43 µM) | 9.7 (≈ 27.6 µM) | 0.13 (≈ 0.371 µM) | > 2 | 0.33 (≈ 0.941 µM)
9 | Cc1sccc1C(=O)Nc1ccc(Cl)c(C(=O)OC(C(C)C)C(C)C)c1 [Compound 32] | ≥ 2 | ≥ 2 | ≥ 2 | ≥ 2 | 4.1 (≈ 10.4 µM) | 0.16 (≈ 0.406 µM) | > 2 | 0.95 (≈ 2.41 µM)
10 | Cc1sccc1C(=O)Nc1ccc(Cl)c(C(=O)OC(C)C)c1 [Compound 31] | 0.6 (≈ 1.78 µM) | ≥ 2 | ≥ 2 | 0.93 (≈ 2.75 µM) | 5.5 (≈ 16.3 µM) | 0.09 (≈ 0.266 µM) | > 2 | 0.73 (≈ 2.16 µM)
11 | CC=CCOc1cc(NC(=O)c2ccsc2C)ccc1Cl [Compound 45] | 0.85 (≈ 2.64 µM) | 0.95 (≈ 2.95 µM) | 0.6 (≈ 1.86 µM) | 0.65 (≈ 2.02 µM) | 87 (≈ 270 µM) | 0.15 (≈ 0.466 µM) | > 10 | 0.5 (≈ 1.55 µM)
12 | Cc1occc1C(=S)Nc1ccc(Cl)c(SCC(=O)OC(C)(C)C)c1 [Compound 17] | 0.3 (≈ 0.754 µM) | 0.73 (≈ 1.83 µM) | 0.49 (≈ 1.23 µM) | 0.18 (≈ 0.452 µM) | 7 (≈ 17.6 µM) | 0.22 (≈ 0.553 µM) | ≥ 2 | 0.45 (≈ 1.13 µM)
13 | C=C(Cl)COc1cc(NC(=S)c2ccsc2C)ccc1C#N [Compound 25] | 0.2 (≈ 0.573 µM) | 0.4 (≈ 1.15 µM) | 0.2 (≈ 0.573 µM) | 0.13 (≈ 0.373 µM) | 3.3 (≈ 9.46 µM) | 0.03 (≈ 0.086 µM) | > 2 | 0.44 (≈ 1.26 µM)
